{
  "source": "patent US6054437A",
  "about": "“Method for inducing death of neoplastic cells using piperazine derivatives” (Hitachi Chemical Research Center, Inc., priority 1997, dated 2000)",
  "key": {"[1]": {"test_system": "thiol protease, especially calcium-activated neutral protease (CANP)", "conditions": "cited from earlier work"}, "[2]": {"conditions": "in vivo; cited from earlier work"}, "[3]": {"test_system": "KB-V-1 (resistant)", "conditions": "cited from earlier work"}, "[4]": {"test_system": "KB-V-1 (resistant cells)", "experiment": "Drug accumulation assay ([3H]-vinblastine), resistant cells", "assay_type": "cell-based, human", "procedure": "(§1) 1. Drug Accumulation Assays\n(§2) where the effect of NCO-700 on the uptake of radioactive (^3 H)-vinblastine, an anticancer drug, is measured in cultured cancer cells, that are both drug-resistant and drug-sensitive (Reference 3).\n(§3) In the first two in vitro assays, the drug accumulation assay and the cell survival assay, a human pharyngeal carcinoma cell line (KB-V-1) which is highly resistant to anticancer drugs was used. This cell line was developed by Drs. Ira Pastan and Michael Gottesman of the National Cancer Institute, by step-wise selection in colchicine of drug-resistant cells. The control cancer cell line (KB-3), from which the resistant cell lines were derived, is sensitive to anticancer drugs.\nMeasurement of [^3 H]-vinblastine accumulation was performed by the methods developed in the laboratory of Drs. […] In this method, KB-V-1 and KB-3 cells were plated in 10% fetal bovine serum at a density of 3×10^5 cells per well in 24-well Costar plates. The next day, the growth medium was replaced with Dulbecco's modified Eagle's medium with or without (control cells) 20 μM NCO-700. After ten minutes, the medium was removed and replaced with assay medium (0.5 ml) containing 0.1 μCi, (13 pmol) [^3 H]-vinblastine in the presence or absence of 20 μM NCO-700. After an additional 30 min, the medium was removed, the plates were washed three times in ice-cold phosphate-buffered saline, the cells were detached with trypsin, and radioactivity determined by scintillation counting."}, "[5]": {"test_system": "KB-3 (sensitive cells)", "experiment": "Drug accumulation assay ([3H]-vinblastine), sensitive cells", "assay_type": "cell-based, human", "conditions": "KB-3, control (vinblastine alone)", "procedure": "as §1, §2\nas §3, with “drugs. The resistant KB-V-1 cell line is approximately 275 times more resistant to vinblastine than the sensitive KB-3 line and has a greatly amplified mdr gene which generates the observed resistance.” for “drugs.”\nMeasurement of [^3 H]-vinblastine accumulation was performed by the methods developed in the laboratory of Drs. Gottesman and Pastan (Fojo et al., Cancer Res. 45:3002-3007, 1985). […] After an additional 30 min, the medium was removed, the plates were washed three times in ice-cold phosphate-buffered saline, the cells were detached with trypsin, and radioactivity determined by scintillation counting."}, "[6]": {"test_system": "KB-V-1 (resistant)", "experiment": "Cell survival assay with vinblastine, resistant cells", "assay_type": "cell-based, human", "conditions": "Homo sapiens", "procedure": "(§4) where the effect of NCO-700 to enhance cancer cell killing by vinblastine was measured.\nas §3, with “drugs. The resistant KB-V-1 cell line is approximately 275 times more resistant to vinblastine than the sensitive KB-3 line and has a greatly amplified mdr gene which generates the observed resistance.” for “drugs.”\n(§5) The cell survival experiments shown above were performed by plating KB-3 (sensitive) and KB-V-1 (resistant) cells in 32 mm well plastic dishes at a cell density of 300-500 cells per well. Vinblastine and NCO-700 were added 16 hours after the initial cell plating. After 10 days of incubation at 37°, cell colonies were stained and counted."}, "[7]": {"test_system": "KB-3 (sensitive)", "experiment": "Cell survival assay with vinblastine, sensitive cells", "assay_type": "cell-based, human", "conditions": "Homo sapiens, read-out: vinblastine to kill 50% of cells", "procedure": "as §4\nas §3, with “drugs. The resistant KB-V-1 cell line is approximately 275 times more resistant to vinblastine than the sensitive KB-3 line and has a greatly amplified mdr gene which generates the observed resistance.” for “drugs.”\nas §5"}},
  "note": "Where two headings read alike, the source gives them in different places.",
  "data": [
    {"smiles": "CCOC(=O)[C@H]1O[C@@H]1C(=O)N[C@@H](CC(C)C)C(=O)NCCC(C)C", "note": "[EST]", "values": [
      {"measurement": "thiol protease inhibitory activity", "setting": "[1]", "result": "thiol protease inhibitory activity, especially calcium-activated neutral protease (CANP) inhibitory activity"}
    ]},
    {"smiles": "CC[C@]1(O)C[C@@H]2CN(CCc3c([nH]c4ccccc34)[C@@](C(=O)OC)(c3cc4c(cc3OC)N(C)[C@H]3[C@@](O)(C(=O)OC)[C@H](OC(C)=O)[C@]5(CC)C=CCN6CC[C@]43[C@@H]65)C2)C1", "note": "[vinblastine, reference compound]", "values": [
      {"measurement": "side effects", "setting": "[2]", "result": "inevitable side effects such as hair loss, weight loss, and liver and kidney damage"},
      {"measurement": "resistance to vinblastine, KB-V-1 versus KB-3", "setting": "[3]", "result": "approximately 275 times"},
      {"measurement": "vinblastine accumulation", "setting": "[4]; KB-V-1, control (vinblastine alone)", "result": "0.29 ± 0.03 pmole vinblastine/mg protein"},
      {"measurement": "accumulation of vinblastine (in words)", "setting": "[4]; drug-resistant cell line", "result": "severely restricted"},
      {"measurement": "vinblastine accumulation", "setting": "[5]", "result": "2.99 ± 0.12 pmole vinblastine/mg protein"},
      {"measurement": "IC50", "setting": "[6]; KB-V1, read-out: level of vinblastine needed to kill 50% of the tumor cells", "result": 0.825, "unit": "mg/L"},
      {"measurement": "IC50", "setting": "[6]; KB-V1, read-out: vinblastine to kill 50% of cells", "result": 0.792, "unit": "mg/L"},
      {"measurement": "IC50", "setting": "[7]", "result": 0.0032, "unit": "mg/L"}
    ]}
  ]
}
